Several values for one entry are separate records, joined by “and”; a condition that tells them apart may be missing. Equal values may be shown once. Toxic doses and inconclusive results are not listed.
Test system: L1210 leukemia ip in BDF1 mice, survival T/C
Experiment: NCI In Vivo Anticancer Drug Screen. Data for tumor model L1210 Leukemia (intraperitoneal) in B6D2F1 (BDF1) mice
Conditions: higher = longer survival
Procedure, shortened: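 Read-out is survival time, reported as the treated-group measurement over the vehicle-control measurement.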

CN(N=O)C(N)=O
T/C (endpoint: mean survival time, dose: 0.35 mg/kg/injection, schedule: Q01DX Z (sc), vehicle: steriod suspending solution): 103 % of control | T/C (endpoint: mean survival time, dose: 0.55 mg/kg/injection, schedule: Q01DX Z (sc), vehicle: steriod suspending solution): 97 % of control | T/C (endpoint: mean survival time, dose: 0.83 mg/kg/injection, schedule: Q01DX Z (sc), vehicle: steriod suspending solution): 100 % of control | T/C (endpoint: mean survival time, dose: 0.92 mg/kg/injection, schedule: Q01DX Z (oral), vehicle: steriod suspending solution): 98 % of control | T/C (endpoint: mean survival time, dose: 1.25 mg/kg/injection, schedule: Q01DX Z (sc), vehicle: steriod suspending solution): 103 % of control | T/C (endpoint: mean survival time, dose: 1.38 mg/kg/injection, schedule: Q01DX Z (oral), vehicle: steriod suspending solution): 106 % of control | T/C (endpoint: mean survival time, dose: 2.08 mg/kg/injection, schedule: Q01DX Z (oral), vehicle: steriod suspending solution): 107 % of control | T/C (endpoint: mean survival time, dose: 2.25 mg/kg/injection, schedule: Q01DX Z (ip), vehicle: carboxymethylcellulose (CMC)): 112 % of control | T/C (endpoint: mean survival time, dose: 2.5 mg/kg/injection, schedule: Q01DX Z (sc), vehicle: steriod suspending solution): 156 % of control | T/C (endpoint: mean survival time, dose: 3.12 mg/kg/injection, schedule: Q01DX Z (oral), vehicle: steriod suspending solution): 114 % of control | T/C (endpoint: mean survival time, dose: 3.6 mg/kg/injection, schedule: Q01DX Z (ip), vehicle: carboxymethylcellulose (CMC)): 109 % of control | T/C (endpoint: mean survival time, dose: 4.5 mg/kg/injection, schedule: Q01DX Z (ip), vehicle: carboxymethylcellulose (CMC)): 109 % of control and 120 % of control | T/C (endpoint: mean survival time, dose: 5.0 mg/kg/injection, schedule: Q01DX009 (ip), vehicle: saline): 118 % of control and 123 % of control | T/C (endpoint: mean survival time, dose: 5.0 mg/kg/injection, schedule: Q01DX Z (sc), vehicle: steriod suspending solution): 160 % of control | T/C (endpoint: mean survival time, dose: 5.7 mg/kg/injection, schedule: Q02DX010 (ip), vehicle: carboxymethylcellulose (CMC)): 121 % of control | T/C (endpoint: mean survival time, dose: 6.0 mg/kg/injection, schedule: Q01DX Z (ip), vehicle: carboxymethylcellulose (CMC)): 119 % of control | T/C (endpoint: mean survival time, dose: 6.2 mg/kg/injection, schedule: Q01DX Z (sc), vehicle: saline): 106 % of control and 113 % of control | T/C (endpoint: mean survival time, dose: 6.25 mg/kg/injection, schedule: Q01DX Z (oral), vehicle: steriod suspending solution): 101 % of control | T/C (endpoint: mean survival time, dose: 6.8 mg/kg/injection, schedule: Q02DX010 (ip), vehicle: saline): 122 % of control | T/C (endpoint: mean survival time, dose: 8.0 mg/kg/injection, schedule: Q01DX Z (ip), vehicle: saline): 162 % of control | T/C (endpoint: mean survival time, dose: 8.0 mg/kg/injection, schedule: Q01DX Z (sc), vehicle: other): 122 % of control | T/C (endpoint: mean survival time, dose: 8.0 mg/kg/injection, schedule: Q01DX Z (sc), vehicle: saline): 115 % of control | T/C (endpoint: mean survival time, dose: 9.0 mg/kg/injection, schedule: Q01DX Z (sc), vehicle: saline): 103 % of control | T/C (endpoint: mean survival time, dose: 9.0 mg/kg/injection, schedule: Q02DX010 (ip), vehicle: carboxymethylcellulose (CMC)): 122 % of control | T/C (endpoint: mean survival time, dose: 10.0 mg/kg/injection, schedule: Q01DX Z (sc), vehicle: steriod suspending solution): 156 % of control | T/C (endpoint: mean survival time, dose: 12.0 mg/kg/injection, schedule: Q01DX Z (ip), vehicle: saline): 184 % of control | T/C (endpoint: mean survival time, dose: 12.5 mg/kg/injection, schedule: Q01DX Z (oral), vehicle: steriod suspending solution): 157 % of control | T/C (endpoint: mean survival time, dose: 13.0 mg/kg/injection, schedule: Q02DX010 (ip), vehicle: saline): 154 % of control | T/C (endpoint: mean survival time, dose: 18.0 mg/kg/injection, schedule: Q01DX001 (ip), vehicle: saline): 124 % of control | T/C (endpoint: mean survival time, dose: 18.0 mg/kg/injection, schedule: Q01DX Z (ip), vehicle: carboxymethylcellulose (CMC)): 177 % of control | T/C (endpoint: mean survival time, dose: 18.0 mg/kg/injection, schedule: Q01DX Z (ip), vehicle: saline): 187 % of control | T/C (endpoint: mean survival time, dose: 18.0 mg/kg/injection, schedule: Q01DX Z (sc), vehicle: other): 188 % of control | T/C (endpoint: mean survival time, dose: 20.0 mg/kg/injection, schedule: Q01DX009 (ip), vehicle: saline): 158 % of control and 174 % of control | T/C (endpoint: mean survival time, dose: 20.0 mg/kg/injection, schedule: Q02DX010 (ip), vehicle: other): 159 % of control | T/C (endpoint: mean survival time, dose: 20.0 mg/kg/injection, schedule: Q02DX010 (ip), vehicle: saline): 160 % of control and 166 % of control | T/C (endpoint: mean survival time, dose: 22.5 mg/kg/injection, schedule: Q02DX010 (ip), vehicle: saline): 152 % of control | T/C (endpoint: mean survival time, dose: 24.0 mg/kg/injection, schedule: Q02DX010 (ip), vehicle: saline): 167 % of control | T/C (endpoint: mean survival time, dose: 24.8 mg/kg/injection, schedule: Q01DX Z (oral), vehicle: saline): 112 % of control | T/C (endpoint: mean survival time, dose: 27.0 mg/kg/injection, schedule: Q01DX Z (ip), vehicle: saline): 115 % of control | T/C (endpoint: mean survival time, dose: 30.0 mg/kg/injection, schedule: Q02DX010 (ip), vehicle: other): 208 % of control | T/C (endpoint: mean survival time, dose: 30.0 mg/kg/injection, schedule: Q02DX010 (ip), vehicle: saline): 154 % of control and 177 % of control | T/C (endpoint: mean survival time, dose: 36.0 mg/kg/injection, schedule: Q01DX Z (ip), vehicle: carboxymethylcellulose (CMC)): 122 % of control | T/C (endpoint: mean survival time, dose: 36.0 mg/kg/injection, schedule: Q02DX010 (ip), vehicle: saline): 211 % of control | T/C (endpoint: mean survival time, dose: 40.0 mg/kg/injection, schedule: Q01DX009 (ip), vehicle: saline): 118 % of control and 88 % of control | T/C (endpoint: mean survival time, dose: 40.0 mg/kg/injection, schedule: Q01DX Z (ip), vehicle: saline): 103 % of control | T/C (endpoint: mean survival time, dose: 45.0 mg/kg/injection, schedule: Q01DX Z (ip), vehicle: carboxymethylcellulose (CMC)): 94 % of control | T/C (endpoint: mean survival time, dose: 45.0 mg/kg/injection, schedule: Q02DX010 (ip), vehicle: saline): 108 % of control | T/C (endpoint: mean survival time, dose: 56.0 mg/kg/injection, schedule: Q01DX Z (oral), vehicle: saline): 113 % of control and 114 % of control | T/C (endpoint: mean survival time, dose: 67.0 mg/kg/injection, schedule: Q02DX010 (ip), vehicle: other): 101 % of control | T/C (endpoint: mean survival time, dose: 67.0 mg/kg/injection, schedule: Q02DX010 (ip), vehicle: saline): 74 % of control | T/C (endpoint: mean survival time, dose: 72.0 mg/kg/injection, schedule: Q01DX001 (ip), vehicle: saline): 188 % of control | T/C (endpoint: mean survival time, dose: 80.0 mg/kg/injection, schedule: Q01DX Z (sc), vehicle: steriod suspending solution): 101 % of control | T/C (endpoint: mean survival time, dose: 84.0 mg/kg/injection, schedule: Q01DX Z (oral), vehicle: saline): 101 % of control | T/C (endpoint: mean survival time, dose: 160.0 mg/kg/injection, schedule: Q01DX Z (sc), vehicle: steriod suspending solution): 88 % of control | T/C (endpoint: median survival time, dose: 0.75 mg/kg/injection, schedule: Q01DX009 (ip), vehicle: saline): 95 % of control | T/C (endpoint: median survival time, dose: 1.5 mg/kg/injection, schedule: Q01DX009 (ip), vehicle: saline): 100 % of control and 110 % of control | T/C (endpoint: median survival time, dose: 3.0 mg/kg/injection, schedule: Q01DX009 (ip), vehicle: saline): 100 % of control and 115 % of control | T/C (endpoint: median survival time, dose: 5.0 mg/kg/injection, schedule: Q01DX009 (ip), vehicle: saline): 121 % of control | T/C (endpoint: median survival time, dose: 6.3 mg/kg/injection, schedule: Q01DX017 (ip), vehicle: saline): 122 % of control | T/C (endpoint: median survival time, dose: 10.0 mg/kg/injection, schedule: Q01DX009 (ip), vehicle: saline): 155 % of control | T/C (endpoint: median survival time, dose: 12.0 mg/kg/injection, schedule: Q01DX009 (ip), vehicle: saline): 172 % of control | T/C (endpoint: median survival time, dose: 12.5 mg/kg/injection, schedule: Q01DX017 (ip), vehicle: saline): 183 % of control and 194 % of control | T/C (endpoint: median survival time, dose: 20.0 mg/kg/injection, schedule: Q01DX009 (ip), vehicle: saline): 233 % of control and 242 % of control | T/C (endpoint: median survival time, dose: 24.0 mg/kg/injection, schedule: Q01DX009 (ip), vehicle: saline): 190 % of control | T/C (endpoint: median survival time, dose: 40.0 mg/kg/injection, schedule: Q01DX009 (ip), vehicle: saline): 100 % of control and 121 % of control

C[n+]1c(/C=C\C=C\N2CCCCC2)sc2ccccc21
T/C (endpoint: mean survival time, dose: 1.25 mg/kg/injection, schedule: Q04DX002 (ip), vehicle: saline with Tween-80): 97 % of control | T/C (endpoint: mean survival time, dose: 2.5 mg/kg/injection, schedule: Q04DX002 (ip), vehicle: saline with Tween-80): 108 % of control

CCCCN(CCCC)CCCCO
T/C (endpoint: mean survival time, dose: 50.0 mg/kg/injection, schedule: Q01DX009 (ip), vehicle: saline with Tween-80): 116 % of control | T/C (endpoint: mean survival time, dose: 100.0 mg/kg/injection, schedule: Q01DX009 (ip), vehicle: saline with Tween-80): 101 % of control | T/C (endpoint: mean survival time, dose: 100.0 mg/kg/injection, schedule: Q04DX003 (ip), vehicle: saline with Tween-80): 102 % of control | T/C (endpoint: mean survival time, dose: 200.0 mg/kg/injection, schedule: Q01DX009 (ip), vehicle: saline with Tween-80): 101 % of control | T/C (endpoint: mean survival time, dose: 200.0 mg/kg/injection, schedule: Q04DX003 (ip), vehicle: saline with Tween-80): 96 % of control

O=C1C(=O)c2cccc([N+](=O)[O-])c2-c2c1cccc2[N+](=O)[O-]
T/C (endpoint: mean survival time, dose: 100.0 mg/kg/injection, schedule: Q01DX001 (ip), vehicle: saline): 102 % of control | T/C (endpoint: mean survival time, dose: 200.0 mg/kg/injection, schedule: Q01DX001 (ip), vehicle: saline): 106 % of control | T/C (endpoint: mean survival time, dose: 400.0 mg/kg/injection, schedule: Q01DX001 (ip), vehicle: saline): 102 % of control

CC1CC(=O)C(CN(C)C)C(C)(C)C1 (configuration not stated)
T/C (endpoint: mean survival time, dose: 75.0 mg/kg/injection, schedule: Q01DX001 (ip), vehicle: saline): 106 % of control | T/C (endpoint: mean survival time, dose: 150.0 mg/kg/injection, schedule: Q01DX001 (ip), vehicle: saline): 100 % of control

CC1CCCN(C(=O)Nc2ccccc2)C1 (configuration not stated)
T/C (endpoint: mean survival time, dose: 100.0 mg/kg/injection, schedule: Q04DX002 (ip), vehicle: saline): 104 % of control | T/C (endpoint: mean survival time, dose: 200.0 mg/kg/injection, schedule: Q04DX002 (ip), vehicle: saline): 115 % of control | T/C (endpoint: mean survival time, dose: 400.0 mg/kg/injection, schedule: Q04DX002 (ip), vehicle: saline): 96 % of control

Cc1ccc(Nc2nc(N)nc(N)c2N=O)cc1Cl
T/C (endpoint: mean survival time, dose: 100.0 mg/kg/injection, schedule: Q01DX Z (ip), vehicle: methylcellulose (MC)): 104 % of control | T/C (endpoint: mean survival time, dose: 200.0 mg/kg/injection, schedule: Q01DX Z (ip), vehicle: methylcellulose (MC)): 89 % of control

Source: PubChem BioAssay AID248 (DTP/NCI, 2004)
